Assay results published in patent publication US11033539B2, “Compounds of formulas (VII), (VIII), (IX), (XI), (XII), (XIII), and (XIV) as muscarinic receptor 4(M4) antagonists for treating neurological diseases” (Neurocrine Biosciences, Inc., priority 2015, dated 2021).

Target: human M4 receptor (Homo sapiens (Human), UniProt P08173)
Assay: Radioligand (tritiated N-methylscopolamine) binding assay, M4
Settings: Ki against the M4 receptor; membranes from CHO cells expressing human M4; tritiated N-methylscopolamine 1.5 nM; read-out: Ki
Procedure, shortened: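 Membranes from CHO cells expressing the receptor were incubated with 1.5 nM radioligand and twelve compound concentrations (10 μM to […]) for 90 min at 37 °C in 50 mM HEPES, 100 mM NaCl, 5 mM MgCl2, 1 mM EDTA, pH 7.4. Bound radioligand was collected by filtration and counted, and Ki was derived from inhibition.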

Sequence of human M4 receptor (P08173 whole entry): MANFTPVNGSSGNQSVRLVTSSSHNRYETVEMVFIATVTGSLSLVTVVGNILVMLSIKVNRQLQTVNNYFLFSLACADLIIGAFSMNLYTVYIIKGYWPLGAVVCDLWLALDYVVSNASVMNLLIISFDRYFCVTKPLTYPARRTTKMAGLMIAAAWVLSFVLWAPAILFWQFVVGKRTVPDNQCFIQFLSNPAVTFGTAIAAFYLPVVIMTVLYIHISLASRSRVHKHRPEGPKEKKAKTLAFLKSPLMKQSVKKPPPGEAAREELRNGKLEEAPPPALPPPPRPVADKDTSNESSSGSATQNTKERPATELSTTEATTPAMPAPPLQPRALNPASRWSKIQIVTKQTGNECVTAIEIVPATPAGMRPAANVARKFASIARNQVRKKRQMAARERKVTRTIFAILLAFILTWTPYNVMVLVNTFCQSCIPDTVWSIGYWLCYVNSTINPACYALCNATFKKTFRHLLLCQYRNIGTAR

Ki [nM] | Compound
100 to 1000 | COc1ccc(-c2cc(C(F)(F)F)n3nc(C(=O)NCCC4CCN(Cc5ccccc5)CC4)cc3n2)cc1 [9-59, N-[2-(1-benzylpiperidin-4-yl)ethyl]-5-(4-methoxyphenyl)-7-(trifluoromethyl)pyrazolo[1,5-a]pyrimidine-2-carboxamide]
100 to 1000 | C[C@@H]1CN(c2ncc(C#N)cn2)C[C@H](C)N1C(=O)NCCC1CCN(CC2CCC2)CC1 [21-5]
100 to 1000 | O=C(C1CCN(c2ncc(C(F)(F)F)cc2Cl)CC1)N(CCC1CCN(Cc2ccccc2)CC1)C1CC1 [9-58, N-[2-(1-benzylpiperidin-4-yl)ethyl]-1-[3-chloro-5(trifluoromethyl)pyridin-2-yl]-N-cyclopropylpiperidine-4-carboxamide]
100 to 1000 | O=C(Cc1ccc(OCc2ccccc2)cc1)NCCC1CCN(Cc2ccccc2)CC1 [9-43, 2-[4-(benzyloxy)phenyl]-N-[2-(1-benzylpiperidin-4-yl)ethyl]acetamide]
10 to 100 | N#Cc1cc(N2CCC(C(=O)NC[C@H](O)C3CCN(Cc4ccccc4)CC3)CC2)ccc1F [9-15, N-[(2R)-2-(1-benzylpiperidin-4-yl)-2-hydroxyethyl]-1-(3-cyano-4-fluorophenyl)piperidine-4-carboxamide]
10 to 100 | C[C@@H]1CN(c2cc(F)c(F)c(F)c2)CCN1C(=O)NCCC1CCN(Cc2csnn2)CC1 [6-8, (2R)-2-methyl-N-{2-[1-(1,2,3-thiadiazol-4-ylmethyl)piperidin-4-yl]ethyl}-4-(3,4,5-trifluorophenyl)piperazine-1-carboxamide]
100 to 1000 | C[C@@H]1CN(c2ncc(C#N)cn2)C[C@H](C)N1C(=O)NCCC1CCN(CC23CC(C2)C3)CC1 [21-12]
10 to 100 | O=C(NCCC1CCN(Cc2ccccc2)CC1)N1CCN(c2ncc(C(F)(F)F)cc2Cl)CC1 [8-15, N-[2-(1-benzylpiperidin-4-yl)ethyl]-4-[3-chloro-5-(trifluoromethyl)pyridin-2-yl]piperazine-1-carboxamide]
100 to 1000 | N#Cc1cc(F)cc(N2CCN(C(=O)OCCC3CCN(Cc4ccccc4)CC3)CC2)c1 [12-9, 2-(1-benzylpiperidin-4-yl)ethyl 4-(3-cyano-5-fluorophenyl)piperazine-1-carboxylate]
100 to 1000 | O=C(NCCN1CCC(Cc2ccccc2)CC1)c1ccn2cc(-c3ccc(OC(F)(F)F)cc3)nc2c1 [9-68, N-[2-(4-benzylpiperidin-1-yl)ethyl]-2-[4-(trifluoromethoxy)phenyl]imidazo[1,2-a]pyridine-7-carboxamide]
100 to 1000 | CS(=O)(=O)c1cccc(N2CCC(C(=O)NCCC3CCN(Cc4ccccc4)CC3)CC2)c1 [10-65, N-[2-(1-benzylpiperidin-4-yl)ethyl]-1-(3-methanesulfonylphenyl)piperidine-4-carboxamide]
100 to 1000 | C[C@@H]1CN(c2cc(F)c(F)c(F)c2)CCN1C(=O)NCCC1CCN(Cc2ccccc2OC(F)(F)F)CC1 [6-21, (2R)-2-methyl-N-[2-(1-{[2-(trifluoromethoxy)phenyl]methyl}piperidin-4-yl)ethyl]-4-(3,4,5-trifluorophenyl)piperazine-1-carboxamide]
10 to 100 | C[C@@H]1CN(c2ccc(C#N)cc2)CCN1C(=O)NCCC1CCN(Cc2ccccc2)CC1 [4-25, (2R)-N-[2-(1-benzylpiperidin-4-yl)ethyl]-4-(4-cyanophenyl)-2-methylpiperazine-1-carboxamide]
10 to 100 | Cc1cc(C(=O)NCC(C)C)nc(N2CCN(C(=O)NCCC3CCN(Cc4ccccc4)CC3)[C@H](C)C2)n1 [27-11]
10 to 100 | Cc1c(C(=O)NCCC2CCN(Cc3ccccc3)CC2)cnc2cc(-c3cccc(C#N)c3)nn12 [18-8]
100 to 1000 | C[C@@H]1CN(c2ncc(C(=O)NCC3CC3)cn2)C[C@H](C)N1C(=O)NCCC1CCN(Cc2ccccc2)CC1 [27-5]
100 to 1000 | O=C(NCCC1CCN(Cc2ccccc2)CC1)C1(O)CCN(c2cc(F)ccc2F)CC1 [10-64, N-[2-(1-benzylpiperidin-4-yl)ethyl]-1-(2,5-difluorophenyl)-4-hydroxypiperidine-4-carboxamide]
10 to 100 | C[C@@H]1CN(c2ncc(F)cc2F)CCN1C(=O)NCCC1CCN(Cc2ccccc2)CC1 [4-48, (2R)-N-[2-(1-benzylpiperidin-4-yl)ethyl]-4-(3,5-difluoropyridin-2-yl)-2-methylpiperazine-1-carboxamide]
100 to 1000 | C[C@@H]1CN(c2cc(F)c(F)c(F)c2)CCN1C(=O)NCCC1CCN(Cc2c(F)cccc2F)CC1 [6-28, (2R)-N-(2-{1-[(2,6-difluorophenyl)methyl]piperidin-4-yl}ethyl)-2-methyl-4-(3,4,5-trifluorophenyl)piperazine-1-carboxamide]
10 to 100 | Cc1c(C(=O)NCCC2CCN(Cc3ccccc3)CC2)cnc2cc(-c3ccccc3C(F)(F)F)nn12 [18-11]
100 to 1000 | C[C@@H]1CN(c2ncc(C(F)(F)F)cn2)CCN1C(=O)NCCC1CCN(Cc2ccncc2)CC1 [6-31, (2R)-2-methyl-N-{2-[1-(pyridin-4-ylmethyl)piperidin-4-yl]ethyl}-4-[5-(trifluoromethyl)pyrimidin-2-yl]piperazine-1-carboxamide]

Ki [nM] | Compound
10 to 100 | O=C(NCCN[C@@H]1CCN(Cc2ccccc2)C1)C1CCN(c2ccc(OC(F)(F)F)c(F)c2)CC1 [9-28, N-(2-{[(3R)-1-benzylpyrrolidin-3-yl]amino}ethyl)-1-[3-fluoro-4-(trifluoromethoxy)phenyl]piperidine-4-carboxamide]
10 to 100 | C[C@@H]1CN(c2ncc(C(F)(F)F)cn2)CCN1C(=O)NCCC1CCN(Cc2ccc(C#N)cc2)CC1 [6-41, (2R)-N-(2-{1-[(4-cyanophenyl)methyl]piperidin-4-yl}ethyl)-2-methyl-4-[5-(trifluoromethyl)pyrimidin-2-yl]piperazine-1-carboxamide]
100 to 1000 | O=C(NCCC1CCN(Cc2ccccc2)CC1)C1CCN(c2ccc(C(F)(F)F)nc2)CC1 [10-68, N-[2-(1-benzylpiperidin-4-yl)ethyl]-1-[6-(trifluoromethyl)pyridin-3-yl]piperidine-4-carboxamide]
100 to 1000 | N#Cc1cncc(N2CCC(C(=O)NCCC3CCN(Cc4ccccc4)CC3)CC2)c1 [10-15, N-[2-(1-benzylpiperidin-4-yl)ethyl]-1-(5-cyanopyridin-3-yl)piperidine-4-carboxamide]
100 to 1000 | O=C(NCCC1CCN(Cc2ccccc2)CC1)N1CCC(c2cccc(F)c2)CC1 [8-26, N-[2-(1-benzylpiperidin-4-yl)ethyl]-4-(3-fluorophenyl)piperidine-1-carboxamide]
100 to 1000 | C[C@@H]1CN(c2ncc(C(=O)N(C)C)cn2)CCN1C(=O)NCCC1CCN(Cc2ccccc2)CC1 [27-17]
10 to 100 | O=C(NCCC1CCN(Cc2ccccc2)CC1)C1CCN(c2cc(C(F)(F)F)ccn2)CC1 [10-32, N-[2-(1-benzylpiperidin-4-yl)ethyl]-1-[4-(trifluoromethyl)pyridin-2-yl]piperidine-4-carboxamide]
10 to 100 | O=C(NCCC1CCN(Cc2ccccc2)CC1)N1CCN(c2cccc(OC(F)(F)F)c2)CC1 [8-2, N-[2-(1-benzylpiperidin-4-yl)ethyl]-4-[3-(trifluoromethoxy)phenyl]piperazine-1-carboxamide]
10 to 100 | C[C@@H]1CN(c2cc(F)c(F)c(F)c2)CCN1C(=O)NCCC1CCN(Cc2ccccc2F)CC1 [6-5, (2R)-N-(2-{1-[(2-fluorophenyl)methyl]piperidin-4-yl}ethyl)-2-methyl-4-(3,4,5-trifluorophenyl)piperazine-1-carboxamide]
10 to 100 | Cc1c(C(=O)NCCC2CCN(Cc3ccccc3)CC2)cnc2cc(-c3ccnc(F)c3)nn12 [18-20]
10 to 100 | C[C@@H]1CN(c2cc(F)c(F)c(F)c2)CCN1C(=O)NCCC1(CO)CCN(Cc2ccccc2)CC1 [3-20, (2R)-N-{2-[1-benzyl-4-(hydroxymethyl)piperidin-4-yl]ethyl}-2-methyl-4-(3,4,5-trifluorophenyl)piperazine-1-carboxamide]
100 to 1000 | O=C(CCC1CCN(Cc2ccccc2)CC1)NC1CCN(c2cccc(OC(F)(F)F)c2)CC1 [9-50, 3-(1-benzylpiperidin-4-yl)-N-{1-[3-(trifluoromethoxy)phenyl]piperidin-4-yl}propanamide]
100 to 1000 | CN(CCC1CC[N+](C)(Cc2ccccc2)CC1)C(=O)C1CCN(c2ccc(OC(F)(F)F)cc2)CC1 (centres unmarked) [9-42, 1-benzyl-1-methyl-4-[2-(N-methyl-1-{1-[4-(trifluoromethoxy)phenyl]piperidin-4-yl}formamido)ethyl]piperidin-1-ium]
10 to 100 | C[C@@H]1CN(c2cc(F)c(F)cc2F)CCN1C(=O)NCCC1CCN(Cc2ccccc2)CC1 [4-36, (2R)-N-[2-(1-benzylpiperidin-4-yl)ethyl]-2-methyl-4-(2,4,5-trifluorophenyl)piperazine-1-carboxamide]
100 to 1000 | N-(2-{1-[(4-hydroxyphenyl)methyl]piperidin-4-yl}ethyl)-4-phenoxybenzamide [11-10]
100 to 1000 | CC(C)N(C)C(=O)c1cnc(N2C[C@@H](C)N(C(=O)NCCC3CCN(Cc4ccccc4)CC3)[C@@H](C)C2)nc1 [27-3]
10 to 100 | C[C@@H]1CN(c2ncc(C#N)cn2)C[C@H](C)N1C(=O)NCCC1CCN(CC23C4C5C6C4C2C6C53)CC1 (some centres unmarked) [21-13]
10 to 100 | O=C(NCCC1CCN(Cc2ccccc2)CC1)N1CCN(c2ccc(OC(F)(F)F)cc2)CC1 [8-8, N-[2-(1-benzylpiperidin-4-yl)ethyl]-4-[4-(trifluoromethoxy)phenyl]piperazine-1-carboxamide]
100 to 1000 | Cc1cc(Cl)c(-c2cc(C(=O)NCC[C@@H]3CCN(Cc4ccccc4)C3)ccc2Cl)cn1 [9-20, N-{2-[(3R)-1-benzylpyrrolidin-3-yl]ethyl}-4-chloro-3-(4-chloro-6-methylpyridin-3-yl)benzamide]
10 to 100 | C[C@@H]1CN(c2ncc(C#N)cn2)C[C@H](C)N1C(=O)NCCC1CCN(Cc2ccc(N(C)C)cc2)CC1 [6-43, (2R,6S)-4-(5-cyanopyrimidin-2-yl)-N-[2-(1-{[4-(dimethylamino)-phenyl]methyl}piperidin-4-yl)ethyl]-2,6-dimethylpiperazine-1-carboxamide]
